Measurements reported in paper PMC8759731, “Design, synthesis, and evaluation of novel coumarin-dithiocarbamate derivatives (IDs) as anti-colorectal cancer agents” (Journal of Enzyme Inhibition and Medicinal Chemistry, 2021).

How the values were obtained:
BRD4 (BD1) = target: T1, BRD4 (BD1) (Homo sapiens, UniProt O60885); assay: HTRF assay BRD4 (BD1); format: binding; details: 10 μM, read-out: Inhibitory rate at 10 μM, BRD4 (BD1)
T1 construct: purchased Reaction Biology Corp. RD-11-157
Procedure: (§1) In brief, compounds were serially diluted in Echo plate according to the plate map and DMSO’s final fraction is 0.1%. Then, transferring compounds and DMSO to 384-well assay plate by Echo. After that, 2× Protein and Peptide Mix was added to the assay plate and 2× Detection Mix was then added to assay plate and shook for 30 s. After incubating the plate at room temperature for 1.5 h, the HTRF signals (Excitation wavelength at 340 nm, Emission wavelength at 615 & 665 nm) was read on EnVision (PerkinElmer, UK). (+)-JQ1 (BPS Bioscience, Cat. No. 27402) was used as a positive control. BRD4-1 (RD-11–157) and BRD4-2 (RD-11–158) were purchased from Reaction Biology Corp. (PENN, USA). For Curve fitting, the inhibition values was calculated in Excel using Equation (1): Inhibition %=(Max-Signal)/(Max-Min)*100, and the IC50 values was calculated in XL-Fit using Equation (2): Y = Bottom + (Top-Bottom)/(1+(IC50/X)[…]), Y is %inhibition and X is compound concentration.

BRD4 (BD2) = target: T2, BRD4 (BD2) (Homo sapiens, UniProt O60885); assay: HTRF assay BRD4 (BD2); format: binding; details: read-out: Inhibitory rate at 10 μM, BRD4 (BD2)
T2 construct: purchased Reaction Biology Corp. RD-11-158
Procedure: as §1

SW620 cells = assay: MTS cell viability assay, SW620 cells; format: cell-based; details: Homo sapiens, SW-620, 10 μM, 72 h
From the text: (§2) Human colorectal cancer cell lines including RKO, SW620 and SW480 were purchased from Chinese Academy of Sciences, a typical cell library culture preservation committee (Shanghai, China). Normal human colon epithelial cell line NCM460 was purchased from ATCC (Washington, DC, USA). RPMI-1640 medium (12633020), foetal bovine serum (FBS, 26170043), penicillin-streptomycin (10378016) and phosphate buffered saline (PBS, 70011044) were purchased from Gibco (Eggenstein, Germany). 5-Fluorouracil (5-FU, E0201010050, purity ≥98%) was purchased from Energy Chemical (Shanghai, China). Dimethyl sulfoxide (DMSO, 41639) was obtained from Sigma-Aldrich (St. Louis, MO). 3–(4,5-dimethylthiazol-2-yl)-5–(3-carboxymethoxyphenyl)-2–(4-sulfophenyl)-2H-tetrazolium (MTS, G1111) was purchased from Promega (Madison, WI, USA). All cell lines were cultured in RPMI-1640 medium supplemented with 10% FBS, penicillin (100 units/mL) and streptomycin ([…]) at 37 °C in a humidified atmosphere containing 5% CO2.
(§3) Cell viability was measured via MTS assay. RKO, SW620, SW480 and NCM460 cells were seeded in 96-well plates at a density of 5000 cells per well for 24 h. After treatment with the test compounds at indicated concentration for another 48 h or 72 h at 37 °C, MTS solution was added to each well and incubated for another 30 min at 37 °C. Then, the absorbance at 490 nm was measured by a BioTek Synergy H4 microplate Reader (Vermont, USA). The IC50 values were calculated with Graphpad 7.0 software packages.

RKO cells = assay: MTS cell viability assay, RKO cells; format: cell-based; details: Homo sapiens, 10 μM, 72 h
From the text: as §2, §3

SW480 cells = assay: MTS cell viability assay, SW480 cells; format: cell-based; details: Homo sapiens, 10 μM, 72 h
From the text: as §2, §3

[1] = MTS cell viability assay, NCM460 normal colon epithelial cells; format: cell-based, human; details: human, NCM460 normal colon epithelial cells, 10 μM
From the text: as §2, §3

| SMILES | inhibition at 10 µM (BRD4 (BD1)) [%] | melting point [°C] | inhibition at 10 µM (BRD4 (BD2)) [%] | viability at 10 µM (SW620 cells) [%] | viability at 10 µM (RKO cells) [%] | viability at 10 µM (SW480 cells) [%] | viability at 48 h, 10 µM [1] [%] |
| --- | --- | --- | --- | --- | --- | --- | --- |
| O=c1ccc2cc(CSC(=S)N3CCN(c4ccc(O)cc4)CC3)ccc2o1 [ID-17, (2-Oxo-2H-chromen-6-yl)methyl 4–(4-hydroxyphenyl)piperazine-1-carbodithioate] | 39 | 195.5 to 196.4 | 27.7 | – | – | – | – |
| O=c1[nH]cc(F)c(=O)[nH]1 [5-FU, 5-Fluorouracil, reference compound] | – | – | – | 33.6 | 40.7 | 43.9 | 80.4 |
| CC(C)(C)N1CCN(C(=S)SCc2ccc3oc(=O)ccc3c2)CC1 [ID-14, (2-Oxo-2H-chromen-6-yl)methyl 4-(tert-butyl)piperazine-1-carbodithioate] | 12.8 | 159.4 to 160.3 | 16.6 | – | – | – | – |
| O=c1ccc2cc(CSC(=S)N3CCN(CCO)CC3)ccc2o1 [ID-15, (2-Oxo-2H-chromen-6-yl)methyl 4–(2-hydroxyethyl)piperazine-1-carbodithioate] | 40.2 | 120.9 to 121.8 | 33.3 | – | – | – | – |
| CC(C)N1CCN(C(=S)SCc2ccc3oc(=O)ccc3c2)CC1 [ID-13, (2-Oxo-2H-chromen-6-yl)methyl 4-isopropylpiperazine-1-carbodithioate] | 14.4 | 73.6 to 74.5 | 10.8 | – | – | – | – |
| CN(C)C(=S)SCc1ccc2oc(=O)ccc2c1 [ID-1, (2-Oxo-2H-chromen-6-yl)methyl dimethylcarbamodithioate] | 2.2 | 151.6 to 152.5 | 1.5 | – | – | – | – |
| O=c1ccc2cc(CSC(=S)N3CCC(c4ccccc4)CC3)ccc2o1 [ID-19, (2-Oxo-2H-chromen-6-yl)methyl 4-phenylpiperidine-1-carbodithioate] | 6.5 | 115.6 to 116.5 | 3.2 | – | – | – | – |
| CCCN(CCC)C(=S)SCc1ccc2oc(=O)ccc2c1 [ID-3, (2-Oxo-2H-chromen-6-yl)methyl dipropylcarbamodithioate] | 1.6 | 52.3 to 53.2 | 3.3 | – | – | – | – |
| CCCCN(CCCC)C(=S)SCc1ccc2oc(=O)ccc2c1 [ID-4, (2-Oxo-2H-chromen-6-yl)methyl dibutylcarbamodithioate] | 4.2 | – | 3.1 | – | – | – | – |
| O=c1ccc2cc(CSC(=S)N3CCN(C4CCCCC4)CC3)ccc2o1 [ID-16, (2-Oxo-2H-chromen-6-yl)methyl 4-cyclohexylpiperazine-1-carbodithioate] | 20.1 | 106.9 to 107.8 | 12.9 | – | – | – | – |
| CN1CCN(C2CCN(C(=S)SCc3ccc4oc(=O)ccc4c3)CC2)CC1 [ID-20, (2-Oxo-2H-chromen-6-yl)methyl 4–(4-methylpiperazin-1-yl)piperidine-1-carbodithioate] | 36.6 | 95 to 96 | 29.3 | – | – | – | – |
| N#Cc1ccc(N2CCN(C(=S)SCc3ccc4oc(=O)ccc4c3)CC2)cc1 [ID-18, (2-Oxo-2H-chromen-6-yl)methyl 4–(4-cyanophenyl)piperazine-1-carbodithioate] | 11.8 | 181.5 to 182.4 | 8.4 | – | – | – | – |
| CCN(CC)C(=S)SCc1ccc2oc(=O)ccc2c1 [ID-2, (2-Oxo-2H-chromen-6-yl)methyl diethylcarbamodithioate] | 4.3 | 100.1 to 101 | 5.1 | – | – | – | – |

Continued, in another order:

| inhibition at 10 µM (BRD4 (BD1)) [%] | melting point [°C] | inhibition at 10 µM (BRD4 (BD2)) [%] | SMILES | viability at 10 µM (SW620 cells) [%] | viability at 10 µM (RKO cells) [%] | viability at 10 µM (SW480 cells) [%] | viability at 48 h, 10 µM [1] [%] |
| --- | --- | --- | --- | --- | --- | --- | --- |
| 6.3 | 72.6 to 73.5 | 5 | O=c1ccc2cc(CSC(=S)N3CCCCCC3)ccc2o1 [ID-9, (2-Oxo-2H-chromen-6-yl)methyl azepane-1-carbodithioate] | – | – | – | – |
| 7.8 | 130.1 to 131 | 8.2 | O=c1ccc2cc(CSC(=S)N3CCCCC3)ccc2o1 [ID-8, (2-Oxo-2H-chromen-6-yl)methyl piperidine-1-carbodithioate] | – | – | – | – |
| 27.2 | 135.4 to 136.3 | 19.6 | O=c1ccc2cc(CSC(=S)N3CCOCC3)ccc2o1 [ID-10, (2-Oxo-2H-chromen-6-yl)methyl morpholine-4-carbodithioate] | – | – | – | – |
| 15 | 137.8 to 138.7 | 8.7 | O=c1ccc2cc(CSC(=S)N3CC(O)C3)ccc2o1 [ID-6, (2-Oxo-2H-chromen-6-yl)methyl 3-hydroxyazetidine-1-carbodithioate] | – | – | – | – |
| 6.2 | 144 to 145 | 5.8 | O=c1ccc2cc(CSC(=S)N3CCC3)ccc2o1 [ID-5, (2-Oxo-2H-chromen-6-yl)methyl azetidine-1-carbodithioate] | – | – | – | – |
| 35.5 | 124.3 to 125.2 | 26.5 | CN1CCN(C(=S)SCc2ccc3oc(=O)ccc3c2)CC1 [ID-12, (2-Oxo-2H-chromen-6-yl)methyl 4-methylpiperazine-1-carbodithioate] | – | – | – | – |
| 9.2 | 110.2 to 111.1 | 7.1 | O=c1ccc2cc(CSC(=S)N3CCCC3)ccc2o1 [ID-7, (2-Oxo-2H-chromen-6-yl)methyl pyrrolidine-1-carbodithioate] | – | – | – | – |
